These results are taken from ChEMBL document CHEMBL5505966, “Synthesis and pharmacological characterization of conformationally restricted 2-amino-Adipic acid analogs and carboxycyclopropyl glycines as selective metabotropic glutamate 2 receptor agonists” (Eur J Med Chem, 2024).

The source made the active and inactive calls. The calls are words filed in the database; no cut-off is given here.

For assay [1], the target named is Metabotropic glutamate receptor 4 (Rattus norvegicus) (UniProt P31423). The assay can be described thus: Antagonist activity at rat mGluR4 receptor expressed in HEK293 cells by IP-1 HTRF assay. The class given is functional, cell-based.
For assay [2], the target named is Metabotropic glutamate receptor 8 (Rattus norvegicus) (UniProt P70579). As to the kind of experiment: Agonist activity at rat mGluR8 receptor expressed in HEK293 cells at 30 uM by IP-1 HTRF assay. The class given is functional, cell-based.
The target in assay [3] is Metabotropic glutamate receptor 2 (Rattus norvegicus) (UniProt P31421). The assay can be described thus: Agonist activity at rat mGluR2 receptor expressed in HEK293 cells at 30 uM by IP-1 HTRF assay. The class given is functional, cell-based. A general note: In TR-FRET formats the signal depends on donor and acceptor labels being close together.
Assay [4] has the same target. The assay can be described thus: Antagonist activity at rat mGluR2 receptor expressed in HEK293 cells by IP-1 HTRF assay. Format: functional, cell-based.
For assay [5], the target named is Metabotropic glutamate receptor 5 (Rattus norvegicus) (UniProt P31424). As to the kind of experiment: Antagonist activity at rat mGluR5 receptor expressed in HEK293 cells by IP-1 HTRF assay. Format: functional, cell-based.
Assay [6] concerns the target Metabotropic glutamate receptor 3 (Rattus norvegicus) (UniProt P31422). The assay can be described thus: Antagonist activity at rat mGluR3 receptor expressed in HEK293 cells by IP-1 HTRF assay. Format: functional, cell-based.
Assay [7] has as its target Metabotropic glutamate receptor 4 (Rattus norvegicus) (UniProt P31423). The assay can be described thus: Agonist activity at rat mGluR4 receptor expressed in HEK293 cells at 30 uM by IP-1 HTRF assay. The class given is functional, cell-based.
In assay [8] the target is Metabotropic glutamate receptor 8 (Rattus norvegicus) (UniProt P70579). The assay can be described thus: Antagonist activity at rat mGluR8 receptor expressed in HEK293 cells by IP-1 HTRF assay. Format: functional, cell-based.
For assay [9], the target named is Metabotropic glutamate receptor 6 (Rattus norvegicus) (UniProt P35349). As to the kind of experiment: Agonist activity at rat mGluR6 receptor expressed in HEK293 cells at 30 uM by IP-1 HTRF assay. Format: functional, cell-based.
In assay [10] the target is Metabotropic glutamate receptor 7 (Rattus norvegicus) (UniProt P35400). The assay can be described thus: Antagonist activity at rat mGluR7 receptor expressed in HEK293 cells by IP-1 HTRF assay. Format: functional, cell-based.
Assay [11] has the same target. The assay can be described thus: Agonist activity at rat mGluR7 receptor expressed in HEK293 cells at 30 uM by IP-1 HTRF assay. Format: functional, cell-based.
The target in assay [12] is Metabotropic glutamate receptor 5 (Rattus norvegicus) (UniProt P31424). As to the kind of experiment: Agonist activity at rat mGluR5 receptor expressed in HEK293 cells at 30 uM by IP-1 HTRF assay. The class given is functional, cell-based.
Assay [13] deals with Metabotropic glutamate receptor 1 (Rattus norvegicus) (UniProt P23385). The assay can be described thus: Antagonist activity at rat mGluR1 receptor expressed in HEK293 cells by IP-1 HTRF assay. Format: functional, cell-based.
Assay [14] has as its target Metabotropic glutamate receptor 3 (Rattus norvegicus) (UniProt P31422). The assay can be described thus: Agonist activity at rat mGluR3 receptor expressed in HEK293 cells at 30 uM by IP-1 HTRF assay. Format: functional, cell-based.
The target in assay [15] is Metabotropic glutamate receptor 1 (Rattus norvegicus) (UniProt P23385). The assay can be described thus: Agonist activity at rat mGluR1 receptor expressed in HEK293 cells at 30 uM by IP-1 HTRF assay. The class given is functional, cell-based.
Assay [16] concerns the target Metabotropic glutamate receptor 6 (Rattus norvegicus) (UniProt P35349). As to the kind of experiment: Antagonist activity at rat mGluR6 receptor expressed in HEK293 cells by IP-1 HTRF assay. The class given is functional, cell-based.
The target of assay [17] is Metabotropic glutamate receptor 2 (Rattus norvegicus, UniProt P31421). The assay can be described thus: Agonist activity at rat mGluR2 receptor expressed in HEK293 cells by IP-1 HTRF assay. The class given is functional, cell-based. Particulars: read-out: EC50.
Assay [18] has as its target Metabotropic glutamate receptor 3 (Homo sapiens, UniProt Q14832). As to the kind of experiment: Agonist activity at human recombinant mGluR3 receptor assessed as inhibition of forskolin-stimulated [3H]cAMP accumulation incubated for 20 mins by SPA kit analysis. Format: functional. A general note: Changes in cAMP serve as a functional read-out for many G protein-coupled receptors.

Chain of Metabotropic glutamate receptor 8 (Rattus norvegicus) (P70579 whole entry): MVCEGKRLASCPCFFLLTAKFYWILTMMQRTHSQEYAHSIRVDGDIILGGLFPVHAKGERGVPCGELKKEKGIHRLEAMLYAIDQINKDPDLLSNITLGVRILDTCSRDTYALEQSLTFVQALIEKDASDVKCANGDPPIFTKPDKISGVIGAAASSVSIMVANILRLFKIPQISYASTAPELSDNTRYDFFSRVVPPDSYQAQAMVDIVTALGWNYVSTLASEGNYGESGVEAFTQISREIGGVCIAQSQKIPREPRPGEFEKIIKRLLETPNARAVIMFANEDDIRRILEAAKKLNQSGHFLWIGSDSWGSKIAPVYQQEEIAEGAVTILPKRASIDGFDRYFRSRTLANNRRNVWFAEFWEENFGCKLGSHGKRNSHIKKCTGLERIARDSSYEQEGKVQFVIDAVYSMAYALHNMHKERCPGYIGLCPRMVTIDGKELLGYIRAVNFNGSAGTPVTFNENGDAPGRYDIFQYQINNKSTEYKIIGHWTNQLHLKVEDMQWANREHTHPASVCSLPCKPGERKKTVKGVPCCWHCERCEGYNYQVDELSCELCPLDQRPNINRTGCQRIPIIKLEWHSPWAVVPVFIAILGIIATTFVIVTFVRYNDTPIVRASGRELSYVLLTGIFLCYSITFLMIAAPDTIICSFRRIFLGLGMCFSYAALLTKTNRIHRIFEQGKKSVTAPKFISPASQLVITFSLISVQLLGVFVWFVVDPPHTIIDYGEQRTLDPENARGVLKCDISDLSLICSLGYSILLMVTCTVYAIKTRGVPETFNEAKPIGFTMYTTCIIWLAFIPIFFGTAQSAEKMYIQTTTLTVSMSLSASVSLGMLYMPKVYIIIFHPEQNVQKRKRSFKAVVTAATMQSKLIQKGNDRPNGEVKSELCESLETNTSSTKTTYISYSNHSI
Chain of Metabotropic glutamate receptor 3 (Q14832 whole entry): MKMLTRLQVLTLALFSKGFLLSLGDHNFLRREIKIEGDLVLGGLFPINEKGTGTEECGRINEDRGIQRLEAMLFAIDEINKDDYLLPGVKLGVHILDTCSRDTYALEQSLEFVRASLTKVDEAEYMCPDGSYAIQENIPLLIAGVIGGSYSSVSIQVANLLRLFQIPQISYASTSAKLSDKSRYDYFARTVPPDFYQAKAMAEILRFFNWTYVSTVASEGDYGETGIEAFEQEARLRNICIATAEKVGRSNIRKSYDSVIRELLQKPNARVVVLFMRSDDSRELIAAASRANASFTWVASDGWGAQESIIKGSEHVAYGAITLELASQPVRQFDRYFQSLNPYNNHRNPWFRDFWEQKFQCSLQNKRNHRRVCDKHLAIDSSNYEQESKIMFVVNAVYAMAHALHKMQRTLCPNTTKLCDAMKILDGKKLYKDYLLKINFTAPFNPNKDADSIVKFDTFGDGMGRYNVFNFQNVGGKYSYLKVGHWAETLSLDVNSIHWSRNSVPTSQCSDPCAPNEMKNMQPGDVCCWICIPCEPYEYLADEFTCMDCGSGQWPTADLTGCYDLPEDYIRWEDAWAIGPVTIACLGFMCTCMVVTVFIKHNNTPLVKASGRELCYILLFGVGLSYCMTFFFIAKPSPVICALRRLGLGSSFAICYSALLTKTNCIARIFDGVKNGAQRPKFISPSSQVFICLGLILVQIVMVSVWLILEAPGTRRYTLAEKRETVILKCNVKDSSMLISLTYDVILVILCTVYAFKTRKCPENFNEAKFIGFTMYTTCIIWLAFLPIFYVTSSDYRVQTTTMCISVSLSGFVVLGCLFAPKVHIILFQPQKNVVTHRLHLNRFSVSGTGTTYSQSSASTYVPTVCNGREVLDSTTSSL
Chain of Metabotropic glutamate receptor 1 (Rattus norvegicus) (P23385 19-1199 limits assumed): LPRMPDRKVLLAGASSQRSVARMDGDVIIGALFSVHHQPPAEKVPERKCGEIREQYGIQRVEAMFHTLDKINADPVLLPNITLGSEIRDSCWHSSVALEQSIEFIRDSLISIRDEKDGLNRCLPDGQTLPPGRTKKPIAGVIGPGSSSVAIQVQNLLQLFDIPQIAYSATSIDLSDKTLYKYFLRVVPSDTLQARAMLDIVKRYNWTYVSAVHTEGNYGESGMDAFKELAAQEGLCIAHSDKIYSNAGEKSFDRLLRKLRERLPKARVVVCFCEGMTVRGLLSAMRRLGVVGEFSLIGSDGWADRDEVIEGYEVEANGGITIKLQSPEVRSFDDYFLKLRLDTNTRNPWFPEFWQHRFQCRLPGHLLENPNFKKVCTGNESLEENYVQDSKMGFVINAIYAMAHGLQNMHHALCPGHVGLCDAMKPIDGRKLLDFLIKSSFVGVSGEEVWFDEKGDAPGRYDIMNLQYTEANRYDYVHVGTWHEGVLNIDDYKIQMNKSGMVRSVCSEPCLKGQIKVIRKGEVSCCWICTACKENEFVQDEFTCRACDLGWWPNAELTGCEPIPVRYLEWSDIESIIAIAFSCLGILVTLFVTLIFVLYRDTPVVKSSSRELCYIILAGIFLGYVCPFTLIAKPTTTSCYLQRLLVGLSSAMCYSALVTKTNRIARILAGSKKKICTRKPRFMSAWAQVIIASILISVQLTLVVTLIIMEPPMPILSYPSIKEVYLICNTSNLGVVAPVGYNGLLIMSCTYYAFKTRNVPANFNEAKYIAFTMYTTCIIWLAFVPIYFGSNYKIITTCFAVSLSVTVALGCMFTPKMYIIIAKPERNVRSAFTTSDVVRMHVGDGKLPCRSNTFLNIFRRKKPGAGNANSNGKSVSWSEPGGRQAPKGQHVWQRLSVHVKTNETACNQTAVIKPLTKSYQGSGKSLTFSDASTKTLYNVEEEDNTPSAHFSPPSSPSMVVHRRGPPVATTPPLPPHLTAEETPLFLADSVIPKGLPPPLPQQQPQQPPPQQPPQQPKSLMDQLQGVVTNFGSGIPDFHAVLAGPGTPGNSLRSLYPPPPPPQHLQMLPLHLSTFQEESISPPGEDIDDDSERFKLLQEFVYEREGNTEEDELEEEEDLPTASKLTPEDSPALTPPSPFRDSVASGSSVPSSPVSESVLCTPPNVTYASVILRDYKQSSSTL
Chain of Metabotropic glutamate receptor 7 (Rattus norvegicus) (P35400 whole entry): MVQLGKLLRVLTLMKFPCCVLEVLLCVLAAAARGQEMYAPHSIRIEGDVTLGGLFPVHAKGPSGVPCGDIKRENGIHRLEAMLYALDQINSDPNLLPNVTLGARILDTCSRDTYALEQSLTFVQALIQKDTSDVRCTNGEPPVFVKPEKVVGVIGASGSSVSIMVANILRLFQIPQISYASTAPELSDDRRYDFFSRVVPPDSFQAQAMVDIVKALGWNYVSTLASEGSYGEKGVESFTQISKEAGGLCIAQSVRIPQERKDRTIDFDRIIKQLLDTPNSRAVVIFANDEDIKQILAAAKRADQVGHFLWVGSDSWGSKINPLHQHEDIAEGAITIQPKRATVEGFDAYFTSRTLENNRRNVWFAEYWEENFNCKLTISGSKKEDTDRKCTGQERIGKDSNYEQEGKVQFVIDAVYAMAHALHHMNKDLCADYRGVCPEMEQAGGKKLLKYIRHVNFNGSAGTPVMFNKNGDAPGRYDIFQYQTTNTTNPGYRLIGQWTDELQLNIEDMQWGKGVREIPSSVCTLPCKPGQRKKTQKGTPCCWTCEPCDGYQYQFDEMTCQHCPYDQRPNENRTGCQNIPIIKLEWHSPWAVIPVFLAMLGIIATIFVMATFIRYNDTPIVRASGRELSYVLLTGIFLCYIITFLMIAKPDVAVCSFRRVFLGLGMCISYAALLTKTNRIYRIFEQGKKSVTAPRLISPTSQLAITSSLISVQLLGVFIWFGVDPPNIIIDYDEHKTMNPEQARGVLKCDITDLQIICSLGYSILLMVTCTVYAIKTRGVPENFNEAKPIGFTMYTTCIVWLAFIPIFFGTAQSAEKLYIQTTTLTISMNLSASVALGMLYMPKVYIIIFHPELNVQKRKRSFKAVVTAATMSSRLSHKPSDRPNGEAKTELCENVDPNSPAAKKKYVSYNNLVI
Chain of Metabotropic glutamate receptor 4 (Rattus norvegicus) (P31423 whole entry): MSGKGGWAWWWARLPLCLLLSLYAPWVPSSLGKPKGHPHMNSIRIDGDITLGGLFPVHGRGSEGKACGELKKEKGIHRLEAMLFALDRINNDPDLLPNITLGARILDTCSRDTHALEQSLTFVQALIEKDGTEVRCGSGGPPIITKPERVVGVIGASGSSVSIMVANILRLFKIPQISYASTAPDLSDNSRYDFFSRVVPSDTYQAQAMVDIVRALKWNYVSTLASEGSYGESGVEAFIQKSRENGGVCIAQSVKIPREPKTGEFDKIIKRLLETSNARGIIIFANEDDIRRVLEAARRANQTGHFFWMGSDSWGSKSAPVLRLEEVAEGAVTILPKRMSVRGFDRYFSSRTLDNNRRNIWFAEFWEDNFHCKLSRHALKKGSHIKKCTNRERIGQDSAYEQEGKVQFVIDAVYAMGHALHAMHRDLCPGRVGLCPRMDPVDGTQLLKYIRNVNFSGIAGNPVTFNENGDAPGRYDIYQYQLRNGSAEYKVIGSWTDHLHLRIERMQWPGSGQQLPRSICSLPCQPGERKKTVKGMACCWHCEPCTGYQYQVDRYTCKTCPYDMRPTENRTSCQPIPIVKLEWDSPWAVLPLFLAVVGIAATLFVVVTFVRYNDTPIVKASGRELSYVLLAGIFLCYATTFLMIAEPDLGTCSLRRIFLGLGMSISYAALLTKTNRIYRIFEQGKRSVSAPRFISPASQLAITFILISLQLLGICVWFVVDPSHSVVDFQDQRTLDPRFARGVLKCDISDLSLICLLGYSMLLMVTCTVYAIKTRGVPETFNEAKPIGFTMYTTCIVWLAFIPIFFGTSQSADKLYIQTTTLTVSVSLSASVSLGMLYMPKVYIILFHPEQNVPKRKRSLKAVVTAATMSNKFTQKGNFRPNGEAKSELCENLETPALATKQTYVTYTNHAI

On to `C[C@@]1(C[C@H](N)C(=O)O)C[C@H]1C(=O)O`, for which the inhibition entry in assay [1], in assay [4], in assay [5], in [6], in assay [8] and in [10] was “inactive” throughout. In addition, the inhibition entry in assay [13] and in [16] was “inactive” each time. Further, the result in [2], in assay [3], in assay [7], in assay [9], in assay [11] and in assay [12] was inactive. Also, the result in assay [14] and in assay [15] was inactive.

Regarding `C[C@]1(C(=O)O)C[C@@H]1[C@H](N)C(=O)O`, the EC50 (as a rule, the midpoint of the concentration-response curve) in [17] is 4.1 µM. Further, the inhibition entry in [1], in assay [4], in assay [5], in [6], in [8] and in assay [10] was “inactive” throughout. For the same compound, the inhibition result in assay [13] and in [16] was “inactive” throughout. Besides, the outcome in [2], in assay [7], in assay [9], in [11], in assay [12] and in assay [14] was inactive. Besides, the outcome in assay [15] was inactive.

`C[C@@]1(C(=O)O)C[C@@H]1C(N)C(=O)O` (mixture of isomers): the EC50 in [17] amounted to 8.9 µM. Further, the inhibition result in assay [1], in [4], in assay [5], in assay [6], in assay [8] and in assay [10] was “inactive” each time. Further, the inhibition entry in [13] and in assay [16] was “inactive” each time. Further, the result in assay [2], in assay [7], in assay [9], in assay [11], in [12] and in assay [14] was inactive. For the same compound, the outcome in [15] was inactive.

Turning to `C[C@]1(C(=O)O)C[C@H]1C(N)C(=O)O` (mixture of isomers), the inhibition entry in assay [1], in [4], in assay [5], in assay [6], in assay [8] and in assay [10] was “inactive” throughout. Besides, the inhibition result in assay [13] and in assay [16] was “inactive” each time. The outcome in assay [2], in assay [3], in assay [7], in [9], in [11] and in assay [12] was inactive. In addition, the result in [14] and in assay [15] was inactive.

Take `CC1(C[C@H](N)C(=O)O)CC1C(=O)O` (some centres undefined): the inhibition entry in [1], in [4], in assay [5], in assay [6], in assay [8] and in assay [10] was “inactive” each time. Besides, the inhibition entry in assay [13] and in [16] was “inactive” each time.

As to `N[C@@]1(C(=O)O)CC[C@@H](C(=O)O)C1`, the EC50 in [18] is 860 µM.

Turning to `N[C@H](C(=O)O)[C@H]1[C@@H](CO)[C@@H]1C(=O)O`, the EC50 in [18] amounted to 0.038 µM.

Take `N[C@@H](CCC(=O)O)C(=O)O` [GLUTAMIC ACID]: in [18], the EC50 was 9 µM.

With `C[C@]1(C[C@H](N)C(=O)O)C[C@@H]1C(=O)O`, the inhibition entry in [1], in [4], in assay [5], in [6], in assay [8] and in [10] was “inactive” each time. Also, the inhibition entry in [13] and in [16] was “inactive” each time. The result in assay [2], in assay [3], in assay [7], in assay [9], in [11] and in assay [12] was inactive. Also, the outcome in assay [14] and in assay [15] was inactive.

With `C[C@]1(C[C@H](N)C(=O)O)C[C@H]1C(=O)O`, the inhibition entry in assay [1], in assay [4], in [5], in [6], in assay [8] and in [10] was “inactive” in each case. Besides, the inhibition result in [13] and in assay [16] was “inactive” in each case. For the same compound, the outcome in [2], in assay [3], in assay [7], in assay [9], in assay [11] and in assay [12] was inactive. Also, the result in [14] and in [15] was inactive.

Turning to `CC[C@]1(C(=O)O)C[C@@H]1[C@H](N)C(=O)O`, the inhibition entry in assay [1], in [4], in [5], in assay [6], in [8] and in [10] was “inactive” in each case. Besides, the inhibition entry in assay [13] and in assay [16] was “inactive” each time. Moreover, the result in assay [2], in assay [3], in assay [7], in assay [9], in [11] and in [12] was inactive. Further, the result in assay [14] and in assay [15] was inactive.

Regarding `C[C@@]1(C[C@H](N)C(=O)O)C[C@@H]1C(=O)O`, in [17], the 50% effective concentration (EC50) was 7.5 µM. Moreover, the inhibition result in [1], in assay [4], in assay [5], in [6], in assay [8] and in [10] was “inactive” throughout. Moreover, the inhibition entry in assay [13] and in [16] was “inactive” each time. Further, the outcome in assay [2], in assay [7], in assay [9], in [11], in assay [12] and in assay [14] was inactive. Besides, the result in [15] was inactive.
